Assay results taken from PubChem BioAssay AID1322 (NMMLSC, 2008).
Calls of active or inactive are those of the source. No rule for the calls is given here.

Target: Bcl-2-like protein 1 (Homo sapiens) (UniProt Q07817)
Experiment: Bcl-XL binding to Bim peptide disruption – biochemical, multiplexed, bead flow cytometry, human Bcl-XL, dose response (AID 1322); as to inhibition: test concentration not given here
Settings: Bead-based flow cytometry, MCF; for inhibition: stronger effect = higher value

Chain of Bcl-2-like protein 1 (Homo sapiens) (Q07817 whole entry, looked up): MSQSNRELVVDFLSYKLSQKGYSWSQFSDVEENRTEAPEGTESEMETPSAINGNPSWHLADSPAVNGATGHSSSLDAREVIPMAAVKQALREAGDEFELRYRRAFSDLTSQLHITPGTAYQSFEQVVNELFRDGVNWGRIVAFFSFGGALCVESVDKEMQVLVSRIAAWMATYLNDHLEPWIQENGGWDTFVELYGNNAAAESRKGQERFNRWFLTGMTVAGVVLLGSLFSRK

| Compound | outcome | inhibition |
| --- | --- | --- |
| O=C(c1cccc(Br)c1)N1CCN(c2cnn(-c3ccccc3)c(=O)c2Cl)CC1 | inactive | – |
| CC1CC2=C(NC(=S)NC2c2cccc(F)c2)/C(=C/c2cccc(F)c2)C1 (centres undefined) | inactive | – |
| Cc1ccc2c(c1)c(C)c(C)n2CC(O)Cn1nc(C)c(Br)c1C (centres undefined) | – | inactive |
| Oc1ccc(C=NCC2COc3ccccc3O2)cc1 (centres undefined) | – | inactive |
| COc1ccc(OC)c(-n2c(-c3ccc(C)cc3)n[nH]c2=S)c1 | – | inactive |
| CC(C)Cc1cc(-c2ccco2)c(C#N)c(N)n1 | – | inactive |
| C/C(=N\NC(=O)Cn1nc(C)c([N+](=O)[O-])c1C)c1ccc(O)cc1 | – | inactive |
| O=C(OCC(=O)c1ccc[nH]1)c1ccccc1 | – | inactive |
| Cc1ccc(-c2cc(C(=O)Nc3nccs3)c3ccccc3n2)o1 | – | inactive |
| O=c1[nH]c2ccc(N=Cc3c(O)ccc4cc(Br)ccc34)cc2[nH]1 | – | inactive |
| O=C(C1CCC(Cn2c(=S)[nH]c3ccccc3c2=O)CC1)N1CCN(c2ccccn2)CC1 (centres undefined) | inactive | – |
| Cc1ccc(O)c(NC2=C(Cl)C(=O)N(Cc3ccccc3)C2=O)c1 | – | inactive |
| CCOC(=O)c1cc2c(=O)n3ccccc3nc2n(Cc2ccco2)c1=NC(=O)c1ccccc1OC | inactive | – |
| O=C(N/N=C/c1cccc([N+](=O)[O-])c1)c1cccs1 | inactive | – |
| O=c1c2c(n3nnnc3n1Cc1ccccc1)-c1ccccc1CC21CCCC1 | – | inactive |
| Cc1ccc(NN2C(=O)C=CC2=O)cc1 | inactive | – |
| COc1ccc(N2C(=O)C(Cl)=C(Nc3c(C)n(C)n(-c4ccccc4)c3=O)C2=O)cc1 | – | inactive |
| COc1ccc(CCNC(=O)c2cc(-c3ccccn3)nc3c(Cl)cccc23)cc1OC | – | inactive |
| Fc1ccc(Cn2nnnc2C(c2ccc(Cl)cc2)N2CCSCC2)cc1 (centres undefined) | – | inactive |
| CCOC(=O)c1nn(-c2ccccc2)c(C#N)c1N | inactive | – |
| COc1cccc(/C=N/NC(=O)c2cc3cc([N+](=O)[O-])ccc3s2)c1O | – | inactive |
| Cc1cc(N2CCN(C)CC2)nc2ccc(NC(=S)N3CCC4(CC3)OCCO4)cc12 | inactive | – |
| CCc1ccc(NC(=O)Cc2ccc(OC)cc2)cc1 | inactive | – |
| COc1ccc(N2C(=O)C(Cl)=C(Nc3ccccc3O)C2=O)cc1 | – | inactive |
| CCN1/C(=C/c2ccc3cc(C)ccc3[n+]2CC)Sc2cc(C)c(C)cc21 | – | inactive |

| Compound | outcome | inhibition |
| --- | --- | --- |
| COc1ccc(NC(=O)c2ccc(CN3CCN(c4ccccc4)CC3)cc2)cc1 | – | inactive |
| CC(NCc1ccc(-c2ccccc2)cc1)C(O)c1ccccc1 (centres undefined) | inactive | – |
| CCN1CCN(c2ccc(NC(=O)c3ccc4c(c3)[nH]c(=O)n4Cc3ccc(OC)cc3)cc2)CC1 | – | inactive |
| O=C1c2ccccc2C(=O)N1CN(C(=O)COc1ccc(Cl)cc1Cl)c1cccc(F)c1 | – | inactive |
| C/C(=N\NC(=O)COc1ccc(C#N)cc1)c1ccccc1OC(F)F | – | inactive |
| Clc1ccc2c(N/N=C/c3ccc(Br)cc3)ccnc2c1 | inactive | – |
| C=CCn1c(C)cc(-c2csc(NC)n2)c1C | – | inactive |
| CCCC(=O)OCCNc1cc(Sc2nccn2C)c2nonc2c1[N+](=O)[O-] | – | inactive |
| O=C(N/N=C/c1ccncc1)c1cccc(NC(=O)c2ccccc2Cl)c1 | – | inactive |
| CC1=CC(=O)c2c(O)ccc(O)c2C1=O | – | inactive |
| Cc1cc[n+]2cc(-c3cccc([N+](=O)[O-])c3)c(-c3cccc([N+](=O)[O-])c3)cc2c1 | inactive | – |
| CN=C(NC1CCCCC1)c1ccc(Cl)cc1 | inactive | – |
| O=C1NC(=O)C(=Cc2ccc(-c3cc(Cl)ccc3[N+](=O)[O-])o2)C(=O)N1 | inactive | – |
| CCNC(=S)Nc1cc(OCC)c(NC(=O)c2cccs2)cc1OCC | – | inactive |
| N#Cc1cccc(N=c2ssnc2Cl)c1 | – | inactive |
| COc1cc(/C=C2\SC(=S)NC2=O)ccc1OS(=O)(=O)c1ccccc1 | – | inactive |
| CCn1c(SCC(=O)Nc2ccc(C)cc2)nnc1-c1ccc(O)cc1 | – | inactive |
| COc1ccc(-n2c(NC(=O)c3ccco3)c(C#N)c3nc4ccccc4nc32)cc1 | – | inactive |
| COC(=O)Cc1ccc(NC(=S)N2CCN(c3cccc(O)c3)CC2)cc1 | – | inactive |
| CCN(CC)c1nc(N)nc(N(c2ccccc2)c2ccccc2)n1 | – | inactive |
| COc1ccc(C(=S)N2CCCCCC2)cc1 | – | inactive |
| CC1(C(=O)N(CC(=O)NC2CCCC2)Cc2ccco2)CC(=O)N=C2C=CC=CN21 (centres undefined) | – | inactive |
| Cc1cc(-c2csc(N)n2)c(C)n1CCC(C)C | – | inactive |
| Cc1noc(C)c1COc1ccc(C(=O)Nc2cccnc2)cc1 | – | inactive |
| Nc1ccc(N2CCN(CCCCN3C(=O)C4CCCN4C3=O)CC2)cc1 (centres undefined) | – | inactive |

| Compound | outcome | inhibition |
| --- | --- | --- |
| Cc1ccc(-c2nnc(Cc3ccc(Cl)cc3)o2)cc1 | – | inactive |
| CCOC(=O)c1c(NC(=O)c2ccccc2N(C)S(=O)(=O)c2ccccc2)sc2c1CCCC2 | – | inactive |
| Cc1ccccc1-n1nc(SCC(=O)O)sc1=S | – | inactive |
| CCSc1nnc(NC(=O)c2c(-c3ccccc3Cl)noc2C)s1 | – | inactive |
| CCOc1cc(CNc2ccc(N3CCCCC3)cc2)cc(Br)c1OCC(=O)NC(C)(C)C | inactive | – |
| Cc1ccc(Nc2nc(C)cs2)cc1 | inactive | – |
| CC(=O)Nc1ccc(-n2cc(-c3ccccc3)[nH]c2=S)cc1 | – | inactive |
| COc1ccccc1Cn1nnc2c(=O)[nH]c(C3CCN(C(=O)c4ccc(C)cc4)CC3)nc21 | – | inactive |
| Cc1cccc(NC(=S)N2CCn3cccc3C2c2cccnc2)c1 (centres undefined) | – | inactive |
| COc1ccc2oc(-c3ccccc3)c(C(=O)N3CCOCC3)c2c1 | – | inactive |
| CCCOc1ccc(-c2c(C(=O)N/N=C/c3ccc(OC)cc3)nnn2-c2nonc2N)cc1 | – | inactive |
| Cc1ccccc1-c1nc(-c2ccc(NC(=O)c3ccc4c(c3)OCO4)cc2)no1 | – | inactive |
| C/C(=N\NC(=O)Cc1cccn1C)c1ccc2ccccc2c1 | – | inactive |
| Cc1cc(-c2nnc(CCC(=O)NC(C)c3cccc4ccccc34)o2)no1 (centres undefined) | inactive | – |
| O=C1NC(=O)C2(Cc3c(nc4ccccn4c3=O)N3CCCCCC32)C(=O)N1Cc1ccccc1 (centres undefined) | – | inactive |
| Nc1ccc(Nc2nc(-c3ccncc3)cs2)cc1 | – | inactive |
| COc1ccc(C(=O)Nc2ccc(C(=O)OCC(=O)c3cccc4ccccc34)cc2)cc1 | – | inactive |
| CCOc1c(Cl)cc(CNc2ccc(N3CCCC3)cc2)cc1OC | – | inactive |
| COc1ccc(N2CC(C(=O)Nc3nnc(SCC(=O)c4ccccc4)s3)CC2=O)cc1 (centres undefined) | – | inactive |
| CS(=O)(=O)NN1C(=O)c2ccccc2NC1c1ccccc1 (centres undefined) | inactive | – |
| Cc1nc(NC(=O)CC(C)C)sc1-c1csc(Nc2ccc(Cl)cc2)n1 | – | inactive |
| CCOc1ccccc1NC(=O)CSc1ccc2nnc(-c3cccnc3)n2n1 | – | inactive |
| Cc1ccc(C)c(NC(=O)C(=O)NCc2ccccn2)c1 | inactive | – |
| c1coc(C2=Nc3cccc4cccc(c34)N2)c1 | – | inactive |
